Measured values from BigSolDB 2.1.

C/C=C/C=C/C(=O)O
solubility (mole fraction)
Details	285.15 K	289.15 K	293.15 K	298.15 K	303.15 K	308.15 K	312.65 K	318.15 K	323.15 K
in MTBE	0.0403	0.0439	0.0512	0.0577	0.0693	0.0785	0.093	0.109	0.121
in acetone	0.0476	0.0528	0.0613	0.0701	0.0871	0.0968	0.115	0.14	0.156
in acetonitrile	0.00625	0.00746	0.0098	0.0112	0.0149	0.0172	0.0196	0.0248	0.0306
in ethanol	0.0442	0.0488	0.0572	0.0643	0.0747	0.0872	0.101	0.121	0.143
in ethyl acetate	0.0266	0.0314	0.0357	0.0452	0.0542	0.0626	0.0713	0.0862	0.102
in isopropanol	0.0383	0.0444	0.053	0.0613	0.0684	0.0753	0.086	0.0965	0.103
in methanol	0.0328	0.0392	0.0457	0.0553	0.0643	0.0749	0.083	0.0934	0.106
in n-butanol	0.0619	0.0738	0.0844	0.0973	0.108	0.121	0.135	0.154	0.173
